Measured values: article PMC6778861, “Radiosynthesis and Preclinical Evaluation of ^11C-VA426, a Cyclooxygenase-2 Selective Ligand” (Contrast Media & Molecular Imaging, 2019)

Assays:
[1] = system: COX-2; design: method as in PMID 18598017; details: in vitro; cited from earlier work
[2] = design: method as in PMID 18598017; details: previous study; cited from earlier work
[3] = In vivo stability / radiometabolite analysis in healthy mice (HPLC); details: 10 minutes after injection
Experimental: Mice (n = 3) were injected through the tail vein with 3 ± 0.9 MBq of ^11C-VA426 and sacrificed 10 minutes later, under general anaesthesia. Blood was collected by retro-orbital sampling and processed to obtain plasma, as described above. Radioactive species contained in plasma were extracted by mixing an aliquot (500 μL) of plasma with CH3CN solution (1 : 1 v/v). Acetonitrile extracts were centrifuged and supernatant filtered with a MillexGX® syringe system for HPLC (Gilson Italia Srl, 321 pump, UV/VIS-151) injection. For metabolites analysis in liver, a sample was placed in a tissue homogenizer (Potter-Elvehjem) with 2 mL of saline, mechanically sheared until complete homogenization and subsequently treated as described for plasma. HPLC analyses were performed at room temperature using a C18, 250 × 10 mm, 5 μm column, CH3CN/AcONH4 0.05 M (60/40, v/v) as mobile phase, a flow rate of 4.5 mL/min, and UV = 254 nm. Eluted fractions were collected every 30 seconds, for a total of 14 minutes, and counted with a γ-counter (LKB Compugamma CS 1282).

[4] = Ex vivo biodistribution kinetic profile in healthy rats; design: species or system Sprague Dawley rats
Experimental: Nine SD rats were injected through the tail vein with 9.25 ± 2.5 MBq of ^11C-VA426 and euthanized under general anaesthesia, with a mixture of 4% isoflurane in air, at different time points (10, 30, and 60 minutes) from injection (n = 3 per time). Blood was collected by retro-orbital sampling immediately before the sacrifice. Plasma was separated by centrifugation, and 100 μL of blood and plasma were counted in a γ-counter (LKB Compugamma CS 1282). Peripheral organs (heart, lung, liver, intestine, kidney, testis, and muscle) and brain regions (frontal, right and left cortex, right and left striatum, hippocampus, thalamus, hypothalamus, pons, and cerebellum) were immediately removed and rinsed in cold saline solution. Each sample was then placed in a test tube and weighed, and the radioactivity was measured using a γ-counter (LKB Compugamma CS 1282). An additional aliquot (0.1 mL) of radioactive solution was diluted to 1 : 10, 1 : 100, and 1 : 1000 and used to calculate the standard curve. Radioactivity concentration was calculated as the percentage of injected dose per gram of tissue (%ID/g).

[5] = molecular target: T1, COX-2 (Rattus norvegicus, UniProt P35355); assay: Biodistribution kinetic profile in brain inflammation (intrastriatal LPS) rat model; assay type: in vivo, Sprague Dawley rats; details: rats
T1 construct: from tissue; host or cells: peripheral organs and brain regions of Sprague Dawley rats (in vivo / ex vivo biodistribution)
T1 sequence (P35355 18-604): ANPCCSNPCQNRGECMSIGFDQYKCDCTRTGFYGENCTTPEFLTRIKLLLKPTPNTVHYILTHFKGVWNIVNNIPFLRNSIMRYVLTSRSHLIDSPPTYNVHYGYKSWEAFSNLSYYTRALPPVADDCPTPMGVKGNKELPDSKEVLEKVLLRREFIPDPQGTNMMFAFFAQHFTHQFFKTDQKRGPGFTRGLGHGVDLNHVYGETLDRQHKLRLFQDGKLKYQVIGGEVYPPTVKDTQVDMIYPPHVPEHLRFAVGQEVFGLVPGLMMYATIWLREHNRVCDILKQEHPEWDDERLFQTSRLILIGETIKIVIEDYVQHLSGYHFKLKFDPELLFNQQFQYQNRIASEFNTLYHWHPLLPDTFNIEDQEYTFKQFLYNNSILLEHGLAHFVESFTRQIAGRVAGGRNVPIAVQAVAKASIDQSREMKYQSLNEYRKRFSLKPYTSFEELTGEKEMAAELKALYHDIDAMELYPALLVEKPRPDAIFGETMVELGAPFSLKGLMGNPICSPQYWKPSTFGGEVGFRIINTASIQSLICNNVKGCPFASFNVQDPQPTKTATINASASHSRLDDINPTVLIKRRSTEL
Experimental: In order to trigger nigrostriatal inflammation, eighteen SD rats were anesthetized (zoletil, 25 mg/kg, i.p.) and stereotaxically injected into the right striatum with 3 μL (3.33 μg/μl) of lipopolysaccharide (LPS, Sigma-Aldrich, Italy) and in the contralateral hemisphere with saline (negative control) at the following coordinates: A = +0.5, L = ±3.0, and V = –5.0 mm. One day after LPS injection, the first experimental group (n = 9) was injected through the tail vein with 9.25 ± 2.2 MBq of ^11C-VA426, and three rats per time point (10, 30, and 60 minutes) were euthanized under general anaesthesia, with a mixture of 4% isoflurane in air. Central and peripheral samples were dissected as described above and counted, following the protocol described for the biodistribution kinetic study. Twelve days after LPS injection, the second group of animals (n = 9) underwent the same protocol. Radioactivity concentration in samples was calculated as %ID/g.

[6] = molecular target: T2, COX-2 (Mus musculus, UniProt Q05769); assay: Specificity evaluation in peripheral inflammation (i.p. LPS) mouse model; assay type: in vivo; details: LPS-treated mice, celecoxib 10 mg/kg i.v., 10 minutes p.i.
T2 construct: from tissue; host or cells: organs of living mice (PET in healthy CD-1 mice)
T2 sequence (Q05769 18-604): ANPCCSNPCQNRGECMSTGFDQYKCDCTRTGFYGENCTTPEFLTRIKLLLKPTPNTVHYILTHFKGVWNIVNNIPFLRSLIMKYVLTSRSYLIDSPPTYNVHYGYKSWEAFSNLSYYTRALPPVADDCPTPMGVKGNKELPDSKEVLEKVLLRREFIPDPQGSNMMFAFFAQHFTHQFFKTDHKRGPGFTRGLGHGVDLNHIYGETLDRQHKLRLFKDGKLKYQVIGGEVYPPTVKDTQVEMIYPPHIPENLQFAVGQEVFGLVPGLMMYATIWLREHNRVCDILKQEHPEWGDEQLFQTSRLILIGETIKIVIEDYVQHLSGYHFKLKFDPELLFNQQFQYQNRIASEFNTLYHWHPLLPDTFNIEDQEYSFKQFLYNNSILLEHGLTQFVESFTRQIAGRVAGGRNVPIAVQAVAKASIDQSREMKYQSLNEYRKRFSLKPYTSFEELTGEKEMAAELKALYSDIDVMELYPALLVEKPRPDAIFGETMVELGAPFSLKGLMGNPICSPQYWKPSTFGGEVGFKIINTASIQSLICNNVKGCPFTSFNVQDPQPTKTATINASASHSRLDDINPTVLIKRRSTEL
Experimental: Specificity evaluation studies of ^11C-VA426 were performed on a murine model of peripheral inflammation, after COX-2 specific inhibitor administration. Six hours before the study, six mice received intraperitoneal injection of lipopolysaccharide (10 mg/Kg), in order to promote peripheral inflammation response. Three of the LPS-treated mice were injected i.v. with 10 mg/kg of celecoxib, five minutes before the ^11C-VA426 injection, to carry out a competition assay for the COX-2 binding sites. All mice were sacrificed at the time of maximum uptake (10 minutes p.i.), previously assessed in healthy mice, after 3.9 ± 1.1 MBq injection of the radiotracer. Peripheral samples were dissected and counted, as well as for biodistribution studies. Radioactivity concentration in samples was calculated as %ID/g.

[7] = Ex vivo biodistribution kinetic profile in healthy mice; design: species or system CD-1 mice; details: i.v.
Experimental: Male CD-1 mice were injected through the tail vein with 5.3 ± 1.4 MBq of ^11C-VA426 and sacrificed after 10, 30, and 60 minutes (n = 3 per time point) under general anaesthesia with a mixture of 4% isoflurane in air. Blood was collected by retro-orbital sampling immediately before sacrifice. Plasma was separated by centrifugation, and 100 μL of blood and plasma were counted in a γ-counter (LKB Compugamma CS 1282). Different peripheral organs (heart, lung, liver, intestine, stomach, spleen, kidney, testis, and muscle) and brain regions (cortex, striatum, hippocampus, thalamus, hypothalamus, pons, substantia nigra, and cerebellum) were immediately sampled, rinsed with cold saline, and placed in preweighed tubes for counting. Radioactivity concentration was calculated as %ID/g.

[8] = molecular target: T1, COX-2; assay: Specificity (celecoxib competition) study in healthy rats; assay type: in vivo, Sprague Dawley rats; details: 30 min p.i.
Experimental: In order to evaluate the radiotracer binding specificity to COX-2 in healthy rats, a competition study was performed. Two minutes before the intravenous injection of ^11C-VA426, four animals were pretreated with the COX-2 specific inhibitor celecoxib (Sigma-Aldrich, Italy) (10 mg/kg, i.v.) and four animals with vehicle solution alone (100 μl of DMSO, Sigma-Aldrich). All rats were then injected intravenously with 9.25 ± 2.7 MBq of ^11C-VA426 and sacrificed at the time of maximum uptake (30 minutes p.i.), previously assessed in the kinetic study. Central and peripheral samples were dissected as described above and counted, following the same protocol used for the biodistribution kinetic study. Radioactivity concentration in samples was calculated as %ID/g.

[9] = molecular target: T2, COX-2; assay: PET kinetic study in healthy mice; assay type: in vivo, CD-1 mice
Experimental: Two CD-1 mice were anaesthetized with a mixture of 4% isoflurane in air for the imaging with the YAP-(S)PET system (ISE Srl). Each mouse was placed in a prone position on the PET scanner bed with the abdomen centred in the field of view (FOV). Five minutes before the intravenous injection of ^11C-VA426, one mouse was pretreated with the COX-2 specific inhibitor celecoxib (10 mg/kg, i.v.) in vehicle (100 μl of DMSO, mouse 1) and the other with vehicle alone (mouse 2). Mouse 1 was then injected intravenously with 1.85 MBq of ^11C-VA426 and mouse 2 with 3.7 MBq, and dynamic PET data were acquired for 30 minutes, according to the following schedule: four scans of 2.5 minutes followed by four of 5 minutes. PET data were acquired in list mode, using the full axial acceptance angle of the scanner (3D mode) and then reconstructed with the expectation maximization (EM) algorithm. All images were calibrated with a dedicated phantom, corrected for the radionuclide half-life decay, and quantified as ID/g.

[10] = celecoxib 10 mg/kg i.v. vs vehicle

Question: What does the source list for `COCCc1cc(-c2ccc(S(C)(=O)=O)cc2)n(-c2ccc(F)cc2)c1C` [VA426, 1-(4-fluorophenyl)-3-(2-methoxyethyl)-2-methyl-5-(4-(methylsulfonyl)phenyl)-1H-pyrrole]?
Answer: IC50 [1]: 18 nM; Selectivity Index (IC50 COX-1/IC50 COX-2) [1]: > 5555; toxic effects [2]: without toxic effects

Question: With `Cc1c(CCO[11CH3])cc(-c2ccc(S(C)(=O)=O)cc2)n1-c1ccc(F)cc1` [^11C-VA426] as the compound, how does the “first radioactive metabolite, fraction of total radioactivity in liver” value ([3]; healthy mice) read?
Answer: 39.8%

Question: What about the “parent compound, fraction of total activity in liver” value ([3]; healthy mice) of the same compound?
Answer: 34.9%

Question: And the “parent compound, fraction of total activity in plasma” value ([3]; healthy mice)?
Answer: 47.1%

Question: And the “radioactive metabolite (retention time 3 min), fraction of total radioactivity in plasma” value ([3]; healthy mice)?
Answer: 45.1%

Question: What about the “radioactive metabolite (retention time 5 min), fraction of total radioactivity in plasma” value ([3]; healthy mice) of the same compound?
Answer: 6.6%

Question: And the “second radioactive metabolite, fraction of total radioactivity in liver” value ([3]; healthy mice)?
Answer: 21.6%

Question: What about the “third radioactive metabolite (11.5 min of retention time), fraction of total radioactivity in liver” value ([3]; healthy mice) of the same compound?
Answer: 3.3%

Question: And the “radioactivity due to radioactive metabolites” value ([3]; plasma and liver)?
Answer: over 50%

Question: And the “penetration through the BBB” value ([4]; brain distribution data)?
Answer: good radioactivity penetration through the BBB

Question: And the “time of highest radioactivity concentration in brain” value ([4]; i.v.)?
Answer: 10 min p.i.

Question: And the “radioactivity uptake in liver” value ([4]; i.v., 30 min p.i., n = 3)?
Answer: 0.81 ± 0.28 %ID/g

Question: What about the “difference of concentration in striatum, lesioned hemisphere vs contralateral PBS-injected control” value ([5]; one day after LPS, 10, 30 and 60 minutes) of the same compound?
Answer: no significant differences

Question: What about the “tracer uptake in contralateral healthy cortex” value ([5]; one day after intrastriatal LPS, 60 min p.i.) of the same compound?
Answer: 0.087 ± 0.012 %ID/g

Question: What about the “difference between LPS-treated and healthy contralateral hemisphere, all regions” value ([5]; twelve days after LPS injection) of the same compound?
Answer: no differences were found

Question: What about the “effect of celecoxib on tracer uptake (%ID/g) in all peripheral regions including plasma” value [6] of the same compound?
Answer: dramatic reduction in tracer uptake

Question: What about the “time of maximum radioactivity concentration in all brain regions” value [7] of the same compound?
Answer: 10 minutes after tracer injection

Question: What about the “time of maximum uptake in liver” value [7] of the same compound?
Answer: 10 minutes after injection

Question: What about the “maximum radioactivity concentration in pons” value ([7]; 10 minutes after injection) of the same compound?
Answer: 2.69 ± 0.81 %ID/g

Question: And the “maximum uptake in liver” value ([7]; 10 minutes after injection)?
Answer: 7.72 ± 2.52 %ID/g

Question: And the “change of uptake in intestine after celecoxib pretreatment” value [8, 10]?
Answer: −39%

Question: What about the “change of uptake in kidney after celecoxib pretreatment” value [8, 10] of the same compound?
Answer: −36%

Question: And the “change of uptake in liver after celecoxib pretreatment” value [8, 10]?
Answer: −65%

Question: And the “difference of uptake between vehicle and celecoxib pretreated rats” value ([8]; peripheral tissues and central areas)?
Answer: no significant differences

Question: And the PET radioactivity distribution ([9]; healthy mice, 0 to 30 minutes after injection)?
Answer: accumulates rapidly and primarily in the liver and kidneys

Question: What about the “effect of celecoxib pretreatment on PET radioactivity distribution” value ([9]; healthy mouse, celecoxib 10 mg/kg i.v., 10 and 30 minutes) of the same compound?
Answer: slightly reduced radioactivity distribution in intestine regions
